Source: patent US20130216498A1, “IMIDAZOPYRIDINE DERIVATIVES AS JAK INHIBITORS” (priority 2009, published 2013)

How the values were obtained:
Format in all cases: biochemical
[1] = target: T1, human JAK3 (aa 795-1124) catalytic domain (Homo sapiens, UniProt P52333); experiment: In vitro JAK kinase assay (TR-FRET), JAK3; conditions: GST-fusion catalytic domain; ATP 0.6 μM; poly (GT)-Biotin 140 nM; 30 minutes at room temperature
T1 construct: JAK3 (aa 795-1124); GST (N); purchased Carna Biosciences; host or cells: baculovirus expression system
Protocol: (§1) Compounds were screened for their ability to inhibit JAK1, JAK2 and JAK3 using the assays as indicated below.
(§2) The catalytic domains of human JAK1 (aa 850-1154), JAK2 (aa 826-1132), JAK3 (aa 795-1124) and Tyk2 (aa 871-1187) were expressed as N-terminal GST-fusion proteins using a baculovirus expression system and were purchased from Carna Biosciences. The enzymatic activity was assayed using as substrate a biotinylated peptide, poly (GT)-Biotin (CisBio). The peptide concentration in the reactions was 60 nM for JAK1, 20 nM for JAK2, 140 nM for JAK3 and 50 nM for Tyk2. The degree of phosphorylation was detected by TR-FRET (time-resolved fluorescence energy transfer).
(§3) IC50s of compounds were measured for each kinase in a reaction mixture containing the enzyme, ATP and the peptide in 8 mM MOPS (pH 7.0), 10 mM MgCl2, 0.05% β-mercaptoethanol, 0.45 mg/mL BSA. The ATP concentration in the reactions was 3 μM for JAK1, 0.2 μM for JAK2, 0.6 μM for JAK3 and 1.8 μM for Tyk2. The enzymatic reactions took place for 30 minutes at room temperature. Then, the reactions were stopped with 20 μL of quench detection buffer (50 mM HEPES, 0.5 M KF, EDTA 0.25 M, 0.1% (w/v) BSA, pH 7.5) containing 0.115 μg/mL of anti-phosphoTyr (PT66)-Cryptate (CisBio) and a variable concentration of SA-XL665 (CisBio) to keep the SA-B ratio constant. Incubate for 3 h and read on Victor 2V spectrofluorometer (PerkinElmer) set to read fluorescence resonance energy transfer.

[2] = target: T2, human JAK2 (aa 826-1132) catalytic domain (Homo sapiens, UniProt O60674); experiment: In vitro JAK kinase assay (TR-FRET), JAK2; conditions: GST-fusion catalytic domain; ATP 0.2 μM; poly (GT)-Biotin 20 nM; 30 minutes at room temperature
T2 construct: JAK2 (aa 826-1132); GST (N); purchased Carna Biosciences; host or cells: baculovirus expression system
Protocol: as §1, §2, §3

[3] = target: T3, human JAK1 (aa 850-1154) catalytic domain (Homo sapiens, UniProt P23458); experiment: In vitro JAK kinase assay (TR-FRET), JAK1; conditions: GST-fusion catalytic domain; ATP 3 μM; poly (GT)-Biotin 60 nM; 30 minutes at room temperature
T3 construct: human JAK1 (aa 850-1154); GST (N); purchased Carna Biosciences; host or cells: baculovirus expression system
Protocol: as §1, §2, §3

T1 sequence (P52333 795-1124): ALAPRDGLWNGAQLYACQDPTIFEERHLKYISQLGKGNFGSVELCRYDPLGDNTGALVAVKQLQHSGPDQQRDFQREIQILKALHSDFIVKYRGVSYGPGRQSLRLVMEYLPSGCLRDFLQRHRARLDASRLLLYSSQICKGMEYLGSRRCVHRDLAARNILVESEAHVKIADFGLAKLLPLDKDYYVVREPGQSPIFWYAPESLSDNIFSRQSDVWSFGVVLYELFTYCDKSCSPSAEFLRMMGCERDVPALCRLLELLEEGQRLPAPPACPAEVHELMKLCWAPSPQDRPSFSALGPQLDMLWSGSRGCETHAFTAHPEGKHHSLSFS
T2 sequence (O60674 826-1132): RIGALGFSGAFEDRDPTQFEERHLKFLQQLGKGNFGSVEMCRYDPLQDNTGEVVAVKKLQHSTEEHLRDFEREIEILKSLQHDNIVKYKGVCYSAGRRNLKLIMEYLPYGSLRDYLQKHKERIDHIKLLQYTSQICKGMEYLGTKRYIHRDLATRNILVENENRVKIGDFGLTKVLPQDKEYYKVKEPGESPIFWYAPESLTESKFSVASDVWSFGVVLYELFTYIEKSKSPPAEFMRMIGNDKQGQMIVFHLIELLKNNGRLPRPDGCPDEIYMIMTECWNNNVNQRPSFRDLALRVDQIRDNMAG
T3 sequence (P23458 850-1154): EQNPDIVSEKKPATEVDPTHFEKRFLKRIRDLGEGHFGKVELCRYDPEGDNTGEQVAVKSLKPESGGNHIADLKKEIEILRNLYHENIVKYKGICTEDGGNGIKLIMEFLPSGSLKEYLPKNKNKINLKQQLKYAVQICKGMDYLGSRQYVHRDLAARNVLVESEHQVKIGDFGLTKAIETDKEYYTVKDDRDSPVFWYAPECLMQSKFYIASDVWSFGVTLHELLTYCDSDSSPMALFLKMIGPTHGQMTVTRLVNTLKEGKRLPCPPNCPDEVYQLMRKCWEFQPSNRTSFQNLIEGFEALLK

| Structure (SMILES) | IC50 [1] [nM] | IC50 [2] [nM] | IC50 [3] [nM] |
| --- | --- | --- | --- |
| C[C@H](Nc1ccnc(-c2cnc3ccc(C#N)cn23)n1)c1ccccc1 [Example 1, 3-(4-{[(1S)-1-Phenylethyl]amino}pyrimidin-2-yl)imidazo[1,2-a]pyridine-6-carbonitrile] | < 100 | < 100 | 100 to 1000 |
| COCCNc1ccnc(-c2cnc3ccc(C#N)cn23)n1 [Example 6, 3-{4[(2-Methoxyethyl)amino]pyrimidin-2-yl}imidazo[1,2-a]pyridine-6-carbonitrile] | 100 to 1000 | 100 to 1000 | > 1000 |
| CC(C)(C)CNc1nc(-c2cnc3ccc(C#N)cn23)ncc1N1CCNCC1 [Example 10, 3-{4-[(2,2-Dimethylpropyl)amino]-5-piperazin-1-ylpyrimidin-2-yl}imidazo[1,2-a]pyridine-6-carbonitrile] | 100 to 1000 | < 100 | > 1000 |
| CC(C)(C)CNc1nc(-c2cnc3ccc(C#N)cn23)ncc1-c1cccnc1 [Example 13, 3-{4-[(2,2-Dimethylpropyl)amino]-5-pyridin-3-ylpyrimidin-2-yl}imidazo[1,2-a]pyridine-6-carbonitrile] | 100 to 1000 | 100 to 1000 | > 1000 |
| N#Cc1ccc2ncc(-c3nccc(NC4CCCCC4)n3)n2c1 [Example 21, 3-[4-(Cyclohexylamino)pyrimidin-2-yl]imidazo[1,2-a]pyridine-6-carbonitrile] | < 100 | < 100 | 100 to 1000 |
| N#Cc1ccc2ncc(-c3nccc(N[C@H]4CC[C@H](O)CC4)n3)n2c1 [Example 22, 3-{4-[(Trans-4-hydroxycyclohexyl)amino]pyrimidin-2-yl}imidazo[1,2-a]pyridine-6-carbonitrile] | < 100 | < 100 | > 1000 |
| CC(C)(C)CNc1nc(-c2cnc3ccc(C#N)cn23)nc2ccccc12 [Example 25] | 100 to 1000 | 100 to 1000 | 100 to 1000 |
| CC(C)(C)CNc1ccnc(-c2cnc3ccccn23)n1 [Example 31, N-(2,2-Dimethylpropyl)-2-imidazo[1,2-a]pyridin-3-ylpyrimidin-4-amine] | 100 to 1000 | < 100 | 100 to 1000 |
| C[C@H](Nc1cncc(-c2cnc3ccc(C4CC4)cn23)n1)c1ccccc1 [Example 38, 6-(6-Cyclopropylimidazo[1,2-a]pyridin-3-yl)-N-[(1S)-1-phenylethyl]pyrazin-2-amine] | 100 to 1000 | < 100 | > 1000 |
| C[C@H](Nc1cncc(-c2cnc3ccc(-c4ccccc4)cn23)n1)c1ccccc1 [Example 42, N-[(1S)-1-Phenylethyl]-6-(6-phenylimidazo[1,2-a]pyridin-3-yl)pyrazin-2-amine] | > 1000 | 100 to 1000 | > 1000 |
| CC(C)S(=O)(=O)N1CCC[C@@H](Nc2ccnc(-c3cnc4ccc(C#N)cn34)n2)C1 [Example 45, 3-(4-{[(3R)-1-(Isopropylsulfonyl)piperidin-3-yl]amino}pyrimidin-2-yl)imidazo[1,2-a]pyridine-6-carbonitrile] | 100 to 1000 | 100 to 1000 | > 1000 |
| N#Cc1ccc(N2CCC[C@@H](Nc3ccnc(-c4cnc5ccc(C#N)cn45)n3)C2)nc1 [Example 57, 3-(4-{[(3R)-1-(5-Cyanopyridin-2-yl)piperidin-3-yl]amino}pyrimidin-2-yl)imidazo[1,2-a]pyridine-6-carbonitrile] | < 100 | < 100 | > 1000 |
| N#CCC(=O)N1CCC[C@@H](Nc2ccnc(-c3cnc4ccc(F)cn34)n2)C1 [Example 64, 3-((3R)-3-{[2-(6-Fluoroimidazo[1,2-a]pyridin-3-yl)pyrimidin-4-yl]amino}piperidin-1-yl)-3-oxopropanenitrile] | < 100 | < 100 | < 100 |
| O=C(c1cn[nH]c1)N1CCC[C@@H](Nc2ccnc(-c3cnc4ccc(F)cn34)n2)C1 [Example 67, 2-(6-Fluoroimidazo[1,2-a]pyridin-3-yl)-N-[(3R)-1-(1H-pyrazol-4ylcarbonyl)piperidin-3-yl]pyrimidin-4-amine] | 100 to 1000 | < 100 | 100 to 1000 |
| CN(CC#N)C(=O)N1CCC[C@@H](Nc2ccnc(-c3cnc4ccc(F)cn34)n2)C1 [Example 68, (3R)—N-(Cyanomethyl)-3-{[2-(6-fluoroimidazo[1,2-a]pyridin-3-yl)pyrimidin-4-yl]amino}-N-methylpiperidine-1-carboxamide] | < 100 | < 100 | 100 to 1000 |
| O=C(CC(F)(F)F)N1CCC[C@@H](N(CC2CC2)c2ccnc(-c3cnc4ccc(F)cn34)n2)C1 [Example 76, N-(Cyclopropylmethyl)-2-(6-fluoroimidazo[1,2-a]pyridin-3-yl)-N-[(3R)-1-(3,3,3-trifluoropropanoyl)piperidin-3-yl]pyrimidin-4-amine] | 100 to 1000 | < 100 | > 1000 |
| Cc1cnc(-c2cnc3ccc(F)cn23)nc1N[C@@H]1CCCN(C(=O)CC(F)(F)F)C1 [Example 80, 2-(6-Fluoroimidazo[1,2-a]pyridin-3-yl)-5-methyl-N-[(3R)-1-(3,3,3-trifluoropropanoyl)piperidin-3-yl]pyrimidin-4-amine] | < 100 | < 100 | < 100 |
| N#CCC(=O)N1CCCN(c2ccnc(-c3cnc4ccc(C#N)cn34)n2)CC1 [Example 82, 3-{4-[4-(Cyanoacetyl)-1,4-diazepan-1-yl]pyrimidin-2-yl}imidazo[1,2-a]pyridine-6-carbonitrile] | > 1000 | 100 to 1000 | > 1000 |
| CCCN1CC[C@@H](Nc2ccnc(-c3cnc4ccc(F)cn34)n2)C1=O [Example 89, (R)-3-(2-(6-Fluoroimidazo[1,2-a]pyridin-3-yl)pyrimidin-4-ylamino)-1-propyl pyrrolidin-2-one] | > 1000 | 100 to 1000 | > 1000 |
| Fc1ccc2ncc(-c3nccc(N4CCCC4c4ccccn4)n3)n2c1 (stereo not drawn) [Example 90, 6-Fluoro-3-(4-(2-(pyridin-2-yl)pyrrolidin-1-yl)pyrimidin-2-yl)imidazo[1,2-a]pyridine] | < 100 | < 100 | > 1000 |
| CCN(CC)C(=O)[C@H]1CCCN1c1ccnc(-c2cnc3ccc(F)cn23)n1 [Example 92, (R)—N,N-Diethyl-1-(2-(6-fluoroimidazo[1,2-a]pyridin-3-yl)pyrimidin-4-yl)pyrrolidine-2-carboxamide] | > 1000 | < 100 | 100 to 1000 |
| O=C(C1CC1(F)F)N1CCC[C@@H](Nc2ccnc(-c3cnc4ccc(F)cn34)n2)C1 (stereo partly drawn) [Example 102, (2,2-Difluorocyclopropyl)((R)-3-(2-(6-fluoroimidazo[1,2-a]pyridin-3-yl)pyrimidin-4-ylamino)piperidin-1-yl)methanone] | 100 to 1000 | < 100 | > 1000 |
| O=C(Cc1ccc(CO)cc1)N1CCC[C@@H](Nc2ccnc(-c3cnc4ccc(F)cn34)n2)C1 [Example 107, (R)-1-(3-(2-(6-Fluoroimidazo[1,2-a]pyridin-3-yl)pyrimidin-4-ylamino)piperidin-1-yl)-2-(4-(hydroxymethyl)phenyl)ethanone] | > 1000 | < 100 | > 1000 |
| N#Cc1cnc(N2CCC[C@@H](Nc3ccnc(-c4cnc5ccc(F)cn45)n3)C2)s1 [Example 131, (R)-2-(3-(2-(6-Fluoroimidazo[1,2-a]pyridin-3-yl)pyrimidin-4-ylamino)piperidin-1-yl)thiazole-5-carbonitrile] | < 100 | < 100 | < 100 |
| Cc1cnc(-c2cnc3ccc(F)cn23)nc1N[C@@H]1CCN(C(=O)CC#N)C1 [Example 134, (R)-3-(3-(2-(6-Fluoroimidazo[1,2-a]pyridin-3-yl)-5-methylpyrimidin-4-ylamino)pyrrolidin-1-yl)-3-oxopropanenitrile] | 100 to 1000 | < 100 | 100 to 1000 |
| Nc1cnc(-c2cnc3ccc(F)cn23)nc1NCc1ccc(F)cn1 [Example 136] | < 100 | < 100 | < 100 |
| Nc1cnc(-c2cnc3ccc(F)cn23)nc1NC1CCCc2ncccc21 (stereo not drawn) [Example 137, 2-(6-Fluoroimidazo[1,2-a]pyridin-3-yl)-N^4-(5,6,7,8-tetrahydroquinolin-5-yl)pyrimidine-4,5-diamine] | 100 to 1000 | < 100 | > 1000 |
